In patent US20060287360A1, “Novel compounds” (REPLIDYNE, INC., priority 2003, published 2006):

How the values were obtained:
[1] = target: T1, S. aureus MRS (Staphylococcus aureus, UniProt Q5HII6); assay: Enzyme inhibition (S. aureus MRS), aminoacylation assay; format: biochemical
T1 construct: made in house
Procedure: 1. Enzyme Inhibition (S. aureus MRS)—Aminoacylation Assay
Compounds of the present invention may be assayed for their ability to inhibit the enzyme methionyl tRNA synthetase (MRS), using recombinant S. aureus MRS, as follows:
The reaction is started by adding 20 μl appropriately diluted pure enzyme (pre-incubated with inhibitor) to 25 μl reaction mix for 10 min at room temperature. The reaction is terminated by the addition of 100 μl 5% trichloroacetic acid, 10% glycerol. The TCA precipitate is harvested onto dry Unifilter GFC plates using a Packard Filtermate Cell Harvester. The filters are washed with 4×200 μl of 50% industrial methylated spirit, before drying. 30 μl of Microscint 20 is added to each well and plates are counted on a TopCount. (Packard 96 well counter).
Mixed E. coli MRE 600 tRNA and ATP were purchased from Boehringer-Mannheim, L-[^35 S] methionine from Amersham and other reagents from Sigma.
Pure recombinant S. aureus MRS (EP application number 97300317.1, SmithKline Beecham) was obtained using standard purification procedures. The enzyme is diluted in Dilution Buffer which consists of 10 mM Tris/Cl, 2 mM DTT pH 7.9.

[2] = system: E. faecalis; assay: Antibacterial activity, standard MIC assay modified by inclusion of cyclodextrin; format: cell-based; conditions: Enterococcus faecalis; some strains of E. faecalis
Procedure: (§1) Compounds of the present invention were assayed for antibacterial activity against a range of pathogenic organisms (strains of S aureus, Spneumoniae, Efaecalis, H influenzae and M catarrhalis) in a standard MIC assay modified by the inclusion of cyclodextrin, to assist with solubility.

[3] = system: M Catarrhalis; assay: as above; format: cell-based; conditions: some strains of M Catarrhalis
Procedure: as §1

[4] = system: S. aureus; assay: as above; format: cell-based; conditions: Staphylococcus aureus; some strains of S. aureus
Procedure: as §1

[5] = system: S. pneumoniae; assay: as above; format: cell-based; conditions: Streptococcus pneumoniae; some strains of S. pneumoniae
Procedure: as §1

[6] = system: H. influenzae; assay: as above; format: cell-based
Procedure: as §1

T1 sequence (Q5HII6 whole entry): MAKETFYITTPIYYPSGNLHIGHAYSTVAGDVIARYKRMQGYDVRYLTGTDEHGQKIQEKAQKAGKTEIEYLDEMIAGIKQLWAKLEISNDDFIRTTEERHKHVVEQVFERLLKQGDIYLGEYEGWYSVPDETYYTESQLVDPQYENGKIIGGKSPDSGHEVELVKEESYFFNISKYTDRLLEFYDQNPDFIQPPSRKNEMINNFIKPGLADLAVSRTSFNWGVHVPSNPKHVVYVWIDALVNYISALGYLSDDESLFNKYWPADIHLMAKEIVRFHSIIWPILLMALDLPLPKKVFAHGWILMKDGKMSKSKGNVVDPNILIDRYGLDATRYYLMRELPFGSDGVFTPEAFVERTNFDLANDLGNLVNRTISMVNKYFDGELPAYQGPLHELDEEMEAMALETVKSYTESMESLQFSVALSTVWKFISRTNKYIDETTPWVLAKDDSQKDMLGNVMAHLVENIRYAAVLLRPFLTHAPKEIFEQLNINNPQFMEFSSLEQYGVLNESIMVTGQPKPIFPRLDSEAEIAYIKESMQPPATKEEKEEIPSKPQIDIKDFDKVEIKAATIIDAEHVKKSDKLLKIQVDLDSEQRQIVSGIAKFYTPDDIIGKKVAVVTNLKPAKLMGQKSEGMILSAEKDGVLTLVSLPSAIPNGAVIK

Compound: COc1cc(CNCCCNc2nn3nccc3[nH]2)c2[nH]cc(Cl)c2c1.Cl.Cl [Example 1, 2-[3-(3-Chloro-5-methoxy-1H-indol-7-ylmethylamino)propylamino]-1H-pyrazolo[1,5-b][1,2,4]triazole dihydrochloride]
- IC50 [1]: < 10 nM
- MIC [2]: < 32 µg/mL
- MIC [3]: < 32 µg/mL
- MIC [4]: < 32 µg/mL
- MIC [5]: < 32 µg/mL

Compound: Cc1c(CNCCCNc2nn3nccc3[nH]2)sc(Br)c1Br.Cl.Cl [Example 2, 2-[3-(4,5-Dibromo-3-methylthien-2-ylmethylamino)propylamino]-1H-pyrazolo[1,5-b][1,2,4]triazole dihydrochloride]
- IC50 [1]: < 10 nM
- antibacterial activity against H. influenzae [6]: active
